# How the values were obtained:
# LOLRI = test: Post-emergence herbicidal action against LOLRI; type: in vivo, Lolium rigidum; details: application rate 80 g/ha, rated visually after about 3 weeks
# Method in brief: (§1)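 Greenhouse pot test in sandy loam; plants sprayed at the one-leaf stage, 2 to 3 weeks after sowing, with WP or EC formulations as aqueous suspension/emulsion plus 0.5% additive at 600 l/ha water. Visual rating after about 3 weeks against untreated controls (100% = plants died, 0% = like control).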
# PHBPU = test: Post-emergence herbicidal action against PHBPU; type: in vivo, Pharbitis purpurea; details: application rate 80 g/ha, rated visually about 3 weeks after treatment
# Method in brief: as §1
# ABUTH = test: Post-emergence herbicidal action against ABUTH; type: in vivo, Abutilon theophrasti; details: application rate 80 g/ha, rated visually about 3 weeks after treatment
# Method in brief: as §1
# MATIN = test: Post-emergence herbicidal action against MATIN; type: in vivo, Matricaria inodora; details: application rate 80 g/ha, rated visually about 3 weeks after treatment
# Method in brief: as §1
# STEME = test: Post-emergence herbicidal action against STEME; type: in vivo, Stellaria media; details: application rate 80 g/ha, rated visually about 3 weeks after treatment
# Method in brief: as §1
# POLCO = test: Post-emergence herbicidal action against POLCO; type: in vivo, Polygonum convolvulus; details: application rate 80 g/ha, rated visually about 3 weeks after treatment
# Method in brief: as §1
# HORMU = test: Post-emergence herbicidal action against HORMU; type: in vivo, Hordeum murinum; details: application rate 80 g/ha
# Method in brief: as §1
# ALOMY = test: Post-emergence herbicidal action against ALOMY; type: in vivo, Alopecurus myosuroides; details: application rate 80 g/ha, rated visually after about 3 weeks
# Method in brief: as §1
# ECHCG = test: Post-emergence herbicidal action against ECHCG; type: in vivo, Echinochloa crus-galli; details: application rate 80 g/ha, rated visually after about 3 weeks
# Method in brief: as §1
# AVEFA = test: Post-emergence herbicidal action against AVEFA; type: in vivo, Avena fatua; details: application rate 80 g/ha, rated visually after about 3 weeks
# Method in brief: as §1
# VERPE = test: Post-emergence herbicidal action against VERPE; type: in vivo, Veronica persica; details: application rate 80 g/ha
# Method in brief: as §1
# SETVI = test: Post-emergence herbicidal action against SETVI; type: in vivo, Setaria viridis; details: application rate 80 g/ha, rated visually after about 3 weeks
# Method in brief: as §1
# VIOTR = test: Post-emergence herbicidal action against VIOTR; type: in vivo, Viola tricolor; details: application rate 80 g/ha, rated visually about 3 weeks after treatment
# Method in brief: as §1
# AMARE = test: Post-emergence herbicidal action against AMARE; type: in vivo, Amaranthus retroflexus; details: application rate 80 g/ha, rated visually about 3 weeks after treatment
# Method in brief: as §1
SMILES,Herbicidal action against [%] LOLRI (LOLRI) [%],Herbicidal action against [%] PHBPU (PHBPU) [%],Herbicidal action against [%] ABUTH (ABUTH) [%],Herbicidal action against [%] MATIN (MATIN) [%],Herbicidal action against [%] STEME (STEME) [%],Herbicidal action against [%] POLCO (POLCO) [%],Herbicidal action against [%] HORMU (HORMU) [%],Herbicidal action against [%] ALOMY (ALOMY) [%],Herbicidal action against [%] ECHCG (ECHCG) [%],Herbicidal action against [%] AVEFA (AVEFA) [%],Herbicidal action against [%] VERPE (VERPE) [%],Herbicidal action against [%] SETVI (SETVI) [%],Herbicidal action against [%] VIOTR (VIOTR) [%],Herbicidal action against [%] AMARE (AMARE) [%]
C=CC1(C(=O)NC2C=CC(C(=O)OCCCl)C2)CC(c2cc(F)cc(F)c2)=NO1 (mixture of isomers) [Example I-061],90,80,80,80,90,90,90,90,100,100,90,90,80,90
COC(=O)C1C=CC(NC(=O)C2(C(F)(F)F)CC(c3cc(F)cc(F)c3)=NO2)C1 (mixture of isomers) [Example I-063],100,80,90,90,90,90,90,90,90,100,80,90,80,90
CC(C)OC(=O)C1C=CC(NC(=O)C2(C(F)(F)F)CC(c3cc(F)cc(F)c3)=NO2)C1 (mixture of isomers) [Example I-064],100,80,80,90,80,90,90,90,90,100,80,90,80,90
O=C(OCc1ccccc1)C1C=CC(NC(=O)C2(C(F)(F)F)CC(c3cc(F)cc(F)c3)=NO2)C1 (mixture of isomers) [Example I-065],90,80,80,80,90,90,90,90,90,90,80,90,90,80
O=C(OCCCl)C1C=CC(NC(=O)C2(C(F)(F)F)CC(c3cc(F)cc(F)c3)=NO2)C1 (mixture of isomers) [Example I-067],90,80,80,80,90,90,90,90,90,100,80,90,80,80
O=C(OCC(F)(F)F)C1C=CC(NC(=O)C2(C(F)(F)F)CC(c3cc(F)cc(F)c3)=NO2)C1 (mixture of isomers) [Example I-068],90,80,90,90,90,90,90,90,90,100,80,90,90,80

# — patent US12319664B2, “Herbicidally active 3-phenylisoxazoline-5-carboxamides of cyclopentenylcarboxylic acid derivatives” (Bayer Aktiengesellschaft, priority 2018, dated 2025)
